# In patent US20100310536A1, “METHOD FOR EXPANDING HEMATOPOIETIC STEM CELLS USING HETEROCYCLIC COMPOUND” (Nissan Chemical Industries Limited, priority 2007, published 2010):
# Tested on: human cord blood-derived CD34+ cells
# Test: Expansion of CD34+ cells from human cord blood-derived CD34+ cells (7-day liquid culture with SCF, flow cytometry count)
# Type: cell-based
# Conditions: 168 h, number of CD34+ cells relative to absence of compound, 100 ng/mL SCF, 7 days, 37° C., read-out: Expansion efficiency; for fold induction at 1 µg/mL: 1 μg/mL compound; for fold induction at 0.3 µg/mL: 0.3 μg/mL compound
# Protocol: Commercially available human cord blood-derived CD34^+ cells (Cambrex Bio Science Walkersville) were plated on a 12-well plate (Corning) (from 5000 to 10000 cells/1 mL/well). As the culture medium, StemSpan SFEM (Stemcell Technologies) containing 100 ng/mL SCF (R&D Systems) was used, and Compounds Nos. 1 to 11 dissolved in dimethyl sulfoxide were added in an amount of 0.1% (v/v) to a final concentration of 0.3 or 1 μg/mL.
# After the cells were incubated in liquid culture at 37° C. for 7 days in a CO2 incubator (in an atmosphere containing 5 vol % CO2), the total number of cells was counted by trypan blue assay (Invitrogen) or Flow-Count™ fluorosphere assay (Beckman Coulter). The number of CD34^+ cells was calculated as follows. After the incubation, the cells in the liquid culture was stained with a CD34 antibody (PE, Becton, Dickinson and Company). The stained cells were analyzed with a flow cytometer (Beckman Coulter) to determined the proportion of CD34^+ cells, which was multiplied by the total number of cells to calculate the number of CD34^+ cells.
# The expansion efficiencies in the presence of 0.3 μg/mL or 1 μg/mL of compounds based on the number of CD34^+ cells in the absence of them are shown in Table 1 on a scale of A for expansion efficiencies of 3 or greater, B for expansion efficiencies of at least 2 and less than 3, and C for expansion efficiencies of at least 1.4 and less than 2.
SMILES,fold induction at 1 µg/mL,fold induction at 0.3 µg/mL
CC(=O)NC1CCN(C(=O)c2ccc(C(=O)N/N=C(\C)c3csc(-c4ccc(Cl)c(Cl)c4)c3O)s2)C1 (centres unmarked) [compound 1],≥ 3,
C/C(=N\NC(=O)c1ccc(C(=O)Cn2ccc(=O)cc2)s1)c1csc(-c2ccc(Cl)c(Cl)c2)c1O [compound 7],,1.4 to 2
C/C(=N\NC(=O)c1ccc(C(=O)NNc2ccccn2)s1)c1csc(-c2ccc(Cl)c(Cl)c2)c1O [compound 5],,1.4 to 2
C/C(=N\NC(=O)c1ccc(C(=O)CSc2ccncc2)s1)c1csc(-c2ccc(Cl)c(Cl)c2)c1O [compound 8],,2 to 3
C/C(=N\NC(=S)Nc1cccc(C(=O)NCCC(N)=O)c1)c1csc(-c2ccc(Cl)c(Cl)c2)c1O [compound 3],≥ 3,
C/C(=N\NC(=O)c1ccc(C(=O)N2CC(O)C(O)C2)s1)c1csc(-c2ccc(Cl)c(Cl)c2)c1O (centres unmarked) [compound 4],≥ 3,
C/C(=N\NC(=O)c1ccc(C(=O)N(N)Cc2ccncc2)s1)c1csc(-c2ccc(Cl)c(Cl)c2)c1O [compound 6],,1.4 to 2
C/C(=N\NC(=O)c1ccc(C(=O)NN(C)C)s1)c1csc(-c2ccc(Cl)c(Cl)c2)c1O [compound 2],≥ 3,
C/C(=N\NC(=O)c1ccc(C(=O)COc2cc(C)nn2C)s1)c1csc(-c2ccc(Cl)c(Cl)c2)c1O [compound 11],2 to 3,
C/C(=N\NC(=O)c1ccc(C(=O)CSc2cc[n+]([O-])cc2)s1)c1csc(-c2ccc(Cl)c(Cl)c2)c1O [compound 10],≥ 3,
C/C(=N\NC(=O)c1ccc(C(=O)N2CCS(=O)(=O)CC2)s1)c1csc(-c2ccc(Cl)c(Cl)c2)c1O [compound 9],,1.4 to 2
